In article PMC7998309, “Structural-Based Optimizations of the Marine-Originated Meridianin C as Glucose Uptake Agents by Inhibiting GSK-3β” (Marine Drugs, 2021):

Key:
[1] = MTT assay for cell viability (cytotoxicity); format: cell-based, human; settings: human; HepG2 cells, 48 h incubation, MTT
Protocol: The hepatocyte cell line HepG2 cells obtained from the Type Culture Collection of the Chinese Academy of Sciences (Shanghai, China) were maintained in high-glucose DMEM (Gibco) supplemented with 10% fetal bovine serum (FBS) and 1% penicillin-streptomycin in an atmosphere of 5% CO2 at 37 °C.
Into a 96-well plate, 1 × 10^3 HepG2 cells per well were seeded. After 24 h, stock solutions of test compounds in DMSO were diluted in DMEM to ≤0.1% final DMSO concentration. Cells were treated with various concentrations (2.5–25 µM) of tested compounds for 48 h, and the MTT solution (0.5 mg/mL) was added. After 4 h of incubation at 37 °C for MTT-formazan formation, the supernatant was discarded and 100 µL of DMSO was applied into each well to dissolve formazan crystals. Absorbance at 490 nm was determined spectrophotometrically by using a microplate reader (Epoch, BioTek Instruments, Inc., Winooski, VT, USA).

Compound | melting point [°C] | CC50 at 48 h [1] [µM]
CCC(=O)Nc1ccc(-c2cnc(N)nc2-c2c[nH]c3ccc(Br)cc23)cc1 [A1, N-(4-(2-amino-4-(5-bromo-1H-indol-3-yl)pyrimidin-5-yl)phenyl) Propionamide] | 193.6 to 194.2 | 16.7
CCCC(=O)Nc1ccc(-c2cnc(N)nc2-c2c[nH]c3ccc(Br)cc23)cc1 [A2, N-(4-(2-amino-4-(5-bromo-1H-indol-3-yl)pyrimidin-5-yl)phenyl) Butyramide] | 187.6 to 188.3 | > 25
CC(C)C(=O)Nc1ccc(-c2cnc(N)nc2-c2c[nH]c3ccc(Br)cc23)cc1 [A3, N-(4-(2-amino-4-(5-bromo-1H-indol-3-yl)pyrimidin-5-yl)phenyl) Isobutyramide] | 172.6 to 173.3 | 10.8
CC(C)(C)C(=O)Nc1ccc(-c2cnc(N)nc2-c2c[nH]c3ccc(Br)cc23)cc1 [A4, N-(4-(2-amino-4-(5-bromo-1H-indol-3-yl)pyrimidin-5-yl)phenyl) Pivalamide] | 139.6 to 140.3 | 11.9
Nc1ncc(-c2ccc(NC(=O)Cc3ccccc3)cc2)c(-c2c[nH]c3ccc(Br)cc23)n1 [A5, N-(4-(2-amino-4-(5-bromo-1H-indol-3-yl)pyrimidin-5-yl)phenyl)-2-phenylacetamide] | 207.6 to 208.4 | 20.9
Nc1ncc(-c2ccc(NC(=O)c3ccccc3)cc2)c(-c2c[nH]c3ccc(Br)cc23)n1 [A6, N-(4-(2-amino-4-(5-bromo-1H-indol-3-yl)pyrimidin-5-yl)phenyl) Benzamide] | 187.9 to 188.6 | 12.5
Nc1ncc(-c2ccc(NC(=O)c3ccccc3F)cc2)c(-c2c[nH]c3ccc(Br)cc23)n1 [A7, N-(4-(2-amino-4-(5-bromo-1H-indol-3-yl)pyrimidin-5-yl)phenyl)-2-fluorobenzamide] | 159.6 to 160.4 | 18.1
Nc1ncc(-c2ccc(NC(=O)c3cccc(F)c3)cc2)c(-c2c[nH]c3ccc(Br)cc23)n1 [A8, N-(4-(2-amino-4-(5-bromo-1H-indol-3-yl)pyrimidiN-5-yl)phenyl)-3-fluorobenzamide] | 183.6 to 184.3 | 6.8
Nc1ncc(-c2ccc(NC(=O)c3ccc(F)cc3)cc2)c(-c2c[nH]c3ccc(Br)cc23)n1 [A9, N-(4-(2-amino-4-(5-bromo-1H-indol-3-yl)pyrimidin-5-yl)phenyl)-4-fluorobenzamide] | 178.6 to 179.4 | 6
Nc1ncc(-c2ccc(NC(=O)c3ccccc3Cl)cc2)c(-c2c[nH]c3ccc(Br)cc23)n1 [A10, N-(4-(2-amino-4-(5-bromo-1H-indol-3-yl)pyrimidin-5-yl)phenyl)-2-chlorobenzamide] | 211.5 to 212.4 | 18.4
Nc1ncc(-c2ccc(NC(=O)c3cccc(Cl)c3)cc2)c(-c2c[nH]c3ccc(Br)cc23)n1 [A11, N-(4-(2-amino-4-(5-bromo-1H-indol-3-yl)pyrimidin-5-yl)phenyl)-3-chlorobenzamide] | 204.8 to 205.2 | 18.5
Nc1ncc(-c2ccc(NC(=O)c3ccc(Cl)cc3)cc2)c(-c2c[nH]c3ccc(Br)cc23)n1 [A12, N-(4-(2-amino-4-(5-bromo-1H-indol-3-yl)pyrimidin-5-yl)phenyl)-4-chlorobenzamide] | 261.7 to 262.5 | 7.5
Nc1ncc(-c2ccc(NC(=O)c3cccc(Br)c3)cc2)c(-c2c[nH]c3ccc(Br)cc23)n1 [A14, N-(4-(2-amino-4-(5-bromo-1H-indol-3-yl)pyrimidin-5-yl)phenyl)-3-bromobenzamide] | 176.6 to 177.3 | > 25
Nc1ncc(-c2ccc(NC(=O)c3ccc(Br)cc3)cc2)c(-c2c[nH]c3ccc(Br)cc23)n1 [A15, N-(4-(2-amino-4-(5-bromo-1H-indol-3-yl)pyrimidin-5-yl)phenyl)-4-bromobenzamide] | 276.4 to 277.3 | 7.1
Nc1ncc(-c2ccc(NC(=O)c3ccccc3C(F)(F)F)cc2)c(-c2c[nH]c3ccc(Br)cc23)n1 [A16, N-(4-(2-amino-4-(5-bromo-1H-indol-3-yl)pyrimidin-5-yl)phenyl)-2-(trifluoromethyl) Benzamide] | 163.6 to 164.3 | 9.9
Nc1ncc(-c2ccc(NC(=O)c3cccc(C(F)(F)F)c3)cc2)c(-c2c[nH]c3ccc(Br)cc23)n1 [A17, N-(4-(2-amino-4-(5-bromo-1H-indol-3-yl)pyrimidin-5-yl)phenyl)-3-(trifluoromethyl) Benzamide] | 172.6 to 173.3 | 14.3
Nc1ncc(-c2ccc(NC(=O)c3ccc(C(F)(F)F)cc3)cc2)c(-c2c[nH]c3ccc(Br)cc23)n1 [A18, N-(4-(2-amino-4-(5-bromo-1H-indol-3-yl)pyrimidin-5-yl)phenyl)-4-(trifluoromethyl) Benzamide] | 312.7 to 313.4 | 4.2

Compound | melting point [°C] | CC50 at 48 h [1] [µM]
Cc1ccccc1C(=O)Nc1ccc(-c2cnc(N)nc2-c2c[nH]c3ccc(Br)cc23)cc1 [A19, N-(4-(2-amino-4-(5-bromo-1H-indol-3-yl)pyrimidin-5-yl)phenyl)-2-methylbenzamide] | 170.7 to 171.6 | 10.3
Cc1cccc(C(=O)Nc2ccc(-c3cnc(N)nc3-c3c[nH]c4ccc(Br)cc34)cc2)c1 [A20, N-(4-(2-amino-4-(5-bromo-1H-indol-3-yl)pyrimidin-5-yl)phenyl)-3-methylbenzamide] | 211.8 to 212.9 | 13.2
COc1ccccc1C(=O)Nc1ccc(-c2cnc(N)nc2-c2c[nH]c3ccc(Br)cc23)cc1 [A22, N-(4-(2-amino-4-(5-bromo-1H-indol-3-yl)pyrimidin-5-yl)phenyl)-2-methoxybenzamide] | 154.9 to 155.6 | > 25
COc1cccc(C(=O)Nc2ccc(-c3cnc(N)nc3-c3c[nH]c4ccc(Br)cc34)cc2)c1 [A23, N-(4-(2-amino-4-(5-bromo-1H-indol-3-yl)pyrimidin-5-yl)phenyl)-3-methoxybenzamide] | 172.6 to 173.3 | 14.7
COc1ccc(C(=O)Nc2ccc(-c3cnc(N)nc3-c3c[nH]c4ccc(Br)cc34)cc2)cc1 [A24, N-(4-(2-amino-4-(5-bromo-1H-indol-3-yl)pyrimidin-5-yl)phenyl)-4-methoxybenzamide] | 184.6 to 185.3 | 4.3
Nc1ncc(-c2ccc(NC(=O)c3cc(F)ccc3F)cc2)c(-c2c[nH]c3ccc(Br)cc23)n1 [A25, N-(4-(2-amino-4-(5-bromo-1H-indol-3-yl)pyrimidin-5-yl)phenyl)-2,5-difluorobenzamide] | 163.5 to 164.3 | 8.9
Nc1ncc(-c2ccc(NC(=O)c3cccs3)cc2)c(-c2c[nH]c3ccc(Br)cc23)n1 [A27, N-(4-(2-amino-4-(5-bromo-1H-indol-3-yl)pyrimidin-5-yl)phenyl) thiophene-2-carboxamide] | 303.8 to 304.4 | 10
Nc1ncc(-c2ccc(NC(=O)c3cc4ccccc4cn3)cc2)c(-c2c[nH]c3ccc(Br)cc23)n1 [A28, N-(4-(2-amino-4-(5-bromo-1H-indol-3-yl)pyrimidin-5-yl)phenyl) isoquinoline-3-carboxamide] | 189.3 to 190.2 | > 25
Nc1ncc(-c2ccc(NC(=O)c3ccc4ccccc4c3)cc2)c(-c2c[nH]c3ccc(Br)cc23)n1 [A29, N-(4-(2-amino-4-(5-bromo-1H-indol-3-yl)pyrimidin-5-yl)phenyl)-2-naphthamide] | 189.3 to 190.2 | > 25
Clc1cccc(Nc2nccc(-c3c[nH]c4ccc(Br)cc34)n2)c1 [B5, 4-(5-Bromo-1H-indol-3-yl)-N-(3-chlorophenyl) pyrimidin-2-amine] | 210.3 to 211.4 | > 25
Brc1cccc(Nc2nccc(-c3c[nH]c4ccc(Br)cc34)n2)c1 [B8, 4-(5-Bromo-1H-indol-3-yl)-N-(3-bromophenyl) pyrimidin-2-amine] | 214.8 to 215.6 | 18.7
FC(F)(F)c1cccc(Nc2nccc(-c3c[nH]c4ccc(Br)cc34)n2)c1 [B11, 4-(5-Bromo-1H-indol-3-yl)-N-(3-(trifluoromethyl)phenyl) pyrimidin-2-amine] | 171.8 to 172.3 | 17.6
FC(F)(F)c1ccc(Nc2nccc(-c3c[nH]c4ccc(Br)cc34)n2)cc1 [B12, 4-(5-Bromo-1H-indol-3-yl)-N-(4-(trifluoromethyl)phenyl) pyrimidin-2-amine] | 279.5 to 280.3 | > 25
Cc1cccc(Nc2nccc(-c3c[nH]c4ccc(Br)cc34)n2)c1 [B14, 4-(5-Bromo-1H-indol-3-yl)-N-(m-tolyl) pyrimidin-2-amine] | 141.5 to 142.3 | 8.6
Cc1ccc(Nc2nccc(-c3c[nH]c4ccc(Br)cc34)n2)cc1 [B15, 4-(5-Bromo-1H-indol-3-yl)-N-(p-tolyl) pyrimidin-2-amine] | 227.8 to 228.6 | 15.5
COc1cccc(Nc2nccc(-c3c[nH]c4ccc(Br)cc34)n2)c1 [B17, 4-(5-Bromo-1H-indol-3-yl)-N-(3-methoxyphenyl) pyrimidin-2-amine] | 208.7 to 209.3 | 10.6
CC(C)c1cccc(Nc2nccc(-c3c[nH]c4ccc(Br)cc34)n2)c1 [B20, 4-(5-Bromo-1H-indol-3-yl)-N-(3-isopropylphenyl) pyrimidin-2-amine] | 152.6 to 153.4 | 12.5
